# From paper PMC10026764, “Overcoming the imatinib-resistant BCR-ABL mutants with new ureidobenzothiazole chemotypes endowed with potent and broad-spectrum anticancer activity” (Journal of Enzyme Inhibition and Medicinal Chemistry, 2023)
# Where two headings read alike, the source gives them in different places.
# How the values were obtained:
# PC-3 = test: NCI-60 five-dose SRB assay; type: cell-based; conditions: Homo sapiens; PC-3, prostate cancer
# MDA-MB-468 = test: NCI-60 five-dose SRB assay; type: cell-based; conditions: Homo sapiens; MDA-MB-468, breast cancer
# RPMI-8226 = test: NCI-60 five-dose SRB assay; type: cell-based; conditions: Homo sapiens; RPMI-8226, leukaemia
# COLO 205 = test: NCI-60 five-dose SRB assay; type: cell-based; conditions: Homo sapiens; COLO 205, colon cancer
# DU-145 = test: NCI-60 five-dose SRB assay; type: cell-based, human; conditions: DU-145, prostate cancer
# SK-MEL-5 = test: cells; type: cell-based; conditions: SK-MEL-5, melanoma
# SR = test: NCI-60 five-dose SRB assay; type: cell-based, human; conditions: leukaemia
# SW-620 = test: NCI-60 five-dose SRB assay; type: cell-based; conditions: Homo sapiens; SW-620, colon cancer
# LOX IMVI = test: NCI-60 five-dose SRB assay; type: cell-based; conditions: Homo sapiens, melanoma
# OVCAR-4 = test: NCI-60 five-dose SRB assay; type: cell-based; conditions: Homo sapiens; OVCAR-4, ovarian cancer
# HCT-116 = test: NCI-60 five-dose SRB assay; type: cell-based; conditions: Homo sapiens; HCT-116, colon cancer
# A498 = test: NCI-60 five-dose SRB assay; type: cell-based; conditions: Homo sapiens; A498, renal cancer
# IGROV1 = test: NCI-60 five-dose SRB assay; type: cell-based; conditions: Homo sapiens, IGROV-1; IGROV1, ovarian cancer
# leukaemia K-562 cells = test: MTT antiproliferative assay; conditions: for GI50: Homo sapiens, K562, 72 h, read-out: GI50 K-562
# Text: (§1) These cellular outcomes define the impact of BCR-ABL inhibition on the proliferation of K-562 cells.
# HL-60(TB) = test: NCI-60 five-dose SRB assay; type: cell-based; conditions: Homo sapiens, leukaemia
# K-562 = test: NCI-60 five-dose SRB assay; type: cell-based, human; conditions: K-562, leukaemia
# MCF7 = test: NCI-60 five-dose SRB assay; type: cell-based, human; conditions: MCF7, breast cancer
# SK-MEL-2 = test: NCI-60 five-dose SRB assay; type: cell-based; conditions: Homo sapiens; SK-MEL-2, melanoma
# BCR-ABL^T315I = target: T1, BCR-ABL^T315I (Homo sapiens, UniProt P00519, T315I); test: In vitro kinase screening (RBC), BCR-ABL^T315I; type: biochemical; conditions: 10-dose IC50 mode, 3-fold serial dilution, 10 μM ATP
# T1 construct: purchased Reaction Biology Corporation (RBC, Malvern, PA, USA)
# UO-31 = test: NCI-60 five-dose SRB assay; type: cell-based, human; conditions: UO-31, renal cancer
# TK-10 = test: NCI-60 five-dose SRB assay; type: cell-based; conditions: Homo sapiens; TK-10, renal cancer
# L132 normal cell = test: MTT antiproliferative assay; conditions: Homo sapiens, L132, 72 h, read-out: GI50 L132
# Text: as §1
# NCI-H226 = test: NCI-60 five-dose SRB assay; type: cell-based; conditions: Homo sapiens; NCI-H226, non-small cell lung cancer
# A549/ATCC = test: NCI-60 five-dose SRB assay; type: cell-based; conditions: Homo sapiens, non-small cell lung cancer
# NCI-H522 = test: NCI-60 five-dose SRB assay; type: cell-based, human; conditions: Homo sapiens, NCI-H522, NCI-H522, non-small cell lung cancer
# NCI 60-cell line panel = test: cells; type: cell-based
# OVCAR-3 = test: NCI-60 five-dose SRB assay; type: cell-based, human; conditions: OVCAR-3, ovarian cancer
# SF-295 = test: NCI-60 five-dose SRB assay; type: cell-based; conditions: Homo sapiens; SF-295, CNS cancer
# HOP-92 = test: NCI-60 five-dose SRB assay; type: cell-based; conditions: Homo sapiens; HOP-92, non-small cell lung cancer
# NCI-60 cell lines = test: NCI-60 single dose SRB assay (panel); type: cell-based; conditions: single dose 10 μM
# Text: To gain further insights about the anticancer profile of this new ureidobenzothiazole chemotypes, the structures of all final compounds were submitted to the National Cancer Institute (NCI, Developmental Therapeutics Program, Bethesda, MD, USA). Based on NCI selection criteria, compounds 2b (AK-HW-90), 2e, and 2f were chosen for broad screening against a library of 60 human cancer cell lines, representing nine types of blood and solid cancers. Employing the highly sensitive sulforhodamine B (SRB) assay, compounds 2b, 2e, and 2f were tested initially at a single dose of 10 μM, and their detailed activities on the percentages growth of the NCI-60 cell lines were illustrated in Figure 5, and compared with that observed for the lead benzothiazole AKE-5l.
# ACHN = test: NCI-60 five-dose SRB assay; type: cell-based, human; conditions: renal cancer
# NCI-H23 = test: NCI-60 five-dose SRB assay; type: cell-based; conditions: Homo sapiens; NCI-H23, non-small cell lung cancer
# NCI-H322M = test: NCI-60 five-dose SRB assay; type: cell-based, human
# [1] = Homo sapiens, read-out: LC50 (the source's name)
structure (smiles),measurement,setting,value
COc1ccccc1-c1ccc2nc(NC(=O)Nc3cc(C(F)(F)F)cc(C(F)(F)F)c3)sc2c1 [Compound 2e],GI50,PC-3,1.49 µM
same,GI50,MDA-MB-468,1.52 µM
same,GI50,RPMI-8226,1.63 µM
same,GI50,COLO 205,1.65 µM
same,TGI,DU-145,14.9 µM
same,GI50,DU-145; Homo sapiens,4 µM
same,CC50,DU-145; [1],42.4 µM
same,GI50,SK-MEL-5; Homo sapiens,1.57 µM
same,LC50 (50% lethal concentration),SK-MEL-5; Homo sapiens,5.64 µM
same,TGI,SK-MEL-5,2.98 µM
same,GI50,SR; Homo sapiens,~1.7 µM
same,GI50,SR,1.76 µM
same,GI50,SW-620,3.04 µM
same,GI50,LOX IMVI,1.68 µM
same,GI50,OVCAR-4,2.12 µM
same,GI50,HCT-116,1.07 µM
same,GI50,A498,1.64 µM
same,GI50,IGROV1,2.83 µM
same,GI50,leukaemia K-562 cells,13.9 µM
same,SI: selectivity index (GI50 (L132)/GI50 (K562)),"leukaemia K-562 cells; MTT, 72 h",2.5
same,GI50,HL-60(TB),2.01 µM
same,GI50,"K-562; Homo sapiens, K562",1.54 µM
same,CC50,"K-562; Homo sapiens, K562, read-out: LC50 (the source's name)",43.9 µM
same,TGI,K-562,8.95 µM
same,GI50,MCF7; Homo sapiens,2.28 µM
same,CC50,MCF7; [1],46.2 µM
same,TGI,MCF7,10.9 µM
same,GI50,SK-MEL-2,2.09 µM
same,IC50,BCR-ABL^T315I,9.56 µM
same,GI50,UO-31; Homo sapiens,1.79 µM
same,CC50,UO-31; [1],9.29 µM
same,TGI,UO-31,4.07 µM
same,GI50,TK-10,4.03 µM
same,GI50,L132 normal cell,35.1 µM
same,GI50,NCI-H226,2.16 µM
same,GI50,A549/ATCC,3.19 µM
same,GI50,NCI-H522,1.76 µM
same,GI50,"NCI 60-cell line panel; Homo sapiens, 60 cell, all tested melanoma cell lines, read-out: GI50",1.54 to 2.51 µM
same,GI50,"NCI 60-cell line panel; Homo sapiens, COLO205, HCC-2998, HCT-116 and HCT-15 colon cancer cells, read-out: GI50",1.07 to 2.65 µM
same,GI50,NCI 60-cell line panel; all examined cell lines,one-digit micromolar
same,GI50,OVCAR-3; Homo sapiens,1.58 µM
same,LC50 (concentration killing 50% of cells),OVCAR-3; Homo sapiens,16.7 µM
same,TGI,OVCAR-3,4.58 µM
same,GI50,SF-295,2.64 µM
same,GI50,HOP-92,1.19 µM
same,number of cancer cells with lethal/cytotoxic effects (minus % growth values),NCI-60 cell lines,21 cancer cells
same,GI50,ACHN; Homo sapiens,2.14 µM
same,CC50,ACHN; [1],28.2 µM
same,TGI,ACHN,7.71 µM
same,GI50,NCI-H23,2.02 µM
same,CC50,"NCI-H322M; Homo sapiens, NSCL cancer, read-out: LC50 (the source's name)",37 µM
same,GI50,"NCI-H322M; Homo sapiens, non-small cell lung cancer",2.78 µM
same,TGI,NCI-H322M; NSCL cancer,9.06 µM
Cc1ccc(NC(=O)c2ccc(CN3CCN(C)CC3)cc2)cc1Nc1nccc(-c2cccnc2)n1 [Imatinib],GI50,leukaemia K-562 cells,0.8 µM
same,GI50,L132 normal cell,> 10 µM
